Patent US9708336B2, “Metallo-beta-lactamase inhibitors” (priority 2014, dated 2017)
Read-outs that look alike come from different tables or passages of the source.

How the values were obtained:
[1] = molecular target: NDM-1 (Klebsiella pneumoniae, UniProt C7C422); experiment: biochemical; assay type: biochemical; settings: read-out: NDM-1 IC50
[2] = molecular target: IMP-1 (Serratia marcescens, UniProt P52699); experiment: biochemical; assay type: biochemical; settings: read-out: IMP-1 IC50
[3] = molecular target: VIM-1 (Pseudomonas aeruginosa (strain ATCC 15692 / DSM 22644 / CIP 104116 / JCM 14847 / LMG 12228 / 1C / PRS 101 / PAO1), UniProt A0A0F7KYQ8); experiment: Enzyme activity: determination of IC50, fluorescence assay with CCF2-FA substrate (VIM-1); assay type: biochemical
[4] = test system: Escherichia coli expressing NDM-1 (CLB30016); experiment: Antibiotic potentiation activity: synergistic concentration (MITC95) with imipenem, OD600 growth; assay type: cell-based; settings: for Escherichia coli expressing NDM-1 (CLB 30016) MITC95: concentration giving 95% inhibition of bacterial growth
How it was run: (§1)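 Bacteria were grown overnight on agar at 35 °C, diluted 1:100 from saline into 1.1× CAMHB, then given compound with or without imipenem (4 μg/ml in assay, optionally 1 μg/ml). Endpoint: absorbance at 22–24 h.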

[5] = test system: Klebsiella pneumoniae expressing VIM-1 (IHMA599644); experiment: as above; assay type: cell-based; settings: for Klebsiella pneumoniae expressing VIM-1 (IHMA 599644) MITC95: concentration giving 95% inhibition of bacterial growth
How it was run: as §1

[6] = test system: Serratia marcescens expressing IMP-1 (CL5741); experiment: as above; assay type: cell-based; settings: for Serratia marcescens expressing IMP-1 (CL5741) MITC95: concentration giving 95% inhibition of bacterial growth
How it was run: as §1

[7] = NDM-1 enzyme, CCF2-FA substrate
[8] = IMP-1 enzyme, CCF2-FA substrate
[9] = VIM-1 enzyme, CCF2-FA substrate, read-out: VIM-1 IC50
[10] = (CLB30016, NDM-1), 95% growth inhibition
[11] = Klebsiella pneumoniae IHMA599644 (VIM-1), 95% growth inhibition
[12] = Serratia marcescens CL5741 (IMP-1), 95% growth inhibition
[13] = fluorescence assay with CCF2-FA substrate
[14] = fluorescence assay with CCF2-FA substrate, read-out: VIM-1 IC50
[15] = CLB30016 (NDM-1), 95% inhibition of bacterial growth
[16] = IHMA599644 (VIM-1), 95% inhibition of bacterial growth
[17] = CL5741 (IMP-1), 95% inhibition of bacterial growth
[18] = NDM-1 enzyme, CCF2-FA fluorescence assay
[19] = IMP-1 enzyme, CCF2-FA fluorescence assay
[20] = VIM-1 enzyme, CCF2-FA fluorescence assay, read-out: VIM-1 IC50
[21] = Escherichia coli expressing NDM-1 (CLB30016), 95% growth inhibition
[22] = Klebsiella pneumoniae expressing VIM-1 (IHMA599644), 95% growth inhibition
[23] = Serratia marcescens expressing IMP-1 (CL5741), 95% growth inhibition

IMP-1, sequence (P52699 whole entry, looked up): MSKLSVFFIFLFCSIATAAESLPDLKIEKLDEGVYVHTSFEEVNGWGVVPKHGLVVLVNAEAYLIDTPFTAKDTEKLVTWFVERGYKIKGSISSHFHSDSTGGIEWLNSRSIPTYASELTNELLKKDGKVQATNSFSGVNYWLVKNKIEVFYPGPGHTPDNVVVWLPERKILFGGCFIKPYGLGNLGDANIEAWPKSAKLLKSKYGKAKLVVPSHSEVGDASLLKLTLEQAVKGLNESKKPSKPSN
NDM-1, sequence (C7C422 whole entry, looked up, species assumed): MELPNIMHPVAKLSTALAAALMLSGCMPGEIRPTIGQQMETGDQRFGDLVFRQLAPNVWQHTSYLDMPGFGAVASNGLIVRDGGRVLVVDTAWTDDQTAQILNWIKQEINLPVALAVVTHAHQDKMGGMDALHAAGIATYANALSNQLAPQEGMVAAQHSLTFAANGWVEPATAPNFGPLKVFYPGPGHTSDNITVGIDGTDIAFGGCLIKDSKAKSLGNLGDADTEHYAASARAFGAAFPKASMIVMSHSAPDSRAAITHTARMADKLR

SMILES | IC50 [1, 7] | IC50 [2, 8] | IC50 [3, 9] | Escherichia coli MITC95 [4, 10] | Klebsiella pneumoniae MITC95 [5, 11] | Serratia marcescens MITC95 [6, 12] | IC50 [1, 13] | IC50 [2, 13] | IC50 [3, 14] | IC50 [1, 18] | IC50 [2, 19] | Escherichia coli MITC95 [4, 21] | Klebsiella pneumoniae MITC95 [5, 22] | Serratia marcescens MITC95 [6, 23] | also measured
NS(=O)(=O)c1c(C(F)(F)F)ccc(-c2ccc(C3CCN(CC4CCCCN4)CC3)cc2)c1-c1nnn[nH]1 (stereo not drawn) [Example 676, 4′-[1-(piperidin-2-ylmethyl)piperidin-4-yl]-2-(1H-tetrazol-5-yl)-4-(trifluoromethyl)biphenyl-3-sulfonamide] | 5.59 nM | 1.26 nM | 9.1 nM | 12.5 µM | >200 µM | 6.25 µM | – | – | – | – | – | – | – | – | –
Cc1ccc(Oc2cccc(S(N)(=O)=O)c2-c2nn[nH]n2)cc1 [Example 179, 2-(2H-tetrazol-5-yl)-3-(p-tolyloxy)benzenesulfonamide] | – | – | – | – | – | – | 10.8 nM | 406 nM | 1440 nM | – | – | – | – | – | Escherichia coli expressing NDM-1 (CLB 30016) MITC95 [4]: 3.125 µM; Klebsiella pneumoniae expressing VIM-1 (IHMA 599644) MITC95 [5]: >200 µM; Serratia marcescens expressing IMP-1 (CL5741) MITC95 [6]: 37.5 µM
NS(=O)(=O)c1c(C(F)(F)F)ccc(-c2ccc(C3CCN(C4CCNC4)CC3)cc2)c1-c1nnn[nH]1 (stereo not drawn) [Example 789, 4′-(1-pyrrolidin-3-ylpiperidin-4-yl)-2-(1H-tetrazol-5-yl)-4-(trifluoromethyl)biphenyl-3-sulfonamide] | – | – | – | – | – | – | 2.4 nM | 0.472 nM | 16.5 nM | – | – | – | – | – | Escherichia coli MITC95 [4, 15]: 3.125 µM; Klebsiella pneumoniae MITC95 [5, 16]: 100 µM; Serratia marcescens MITC95 [6, 17]: 3.125 µM
NCCc1ccc(-c2ccc(C(F)(F)F)c(S(N)(=O)=O)c2-c2nnn[nH]2)cc1 [Example 707, 4′-(2-aminoethyl)-2-(1H-tetrazol-5-yl)-4-(trifluoromethyl)biphenyl-3-sulfonamide] | 5.59 nM | 6.67 nM | 0.249 nM | 3.125 µM | 1.563 µM | 6.25 µM | – | – | – | – | – | – | – | – | –
CC1(O)CCN(c2ccc(C(F)(F)F)c(S(N)(=O)=O)c2-c2nnn[nH]2)CC1 [Example 653, 3-(4-hydroxy-4-methypiperidin-1-yl)-2-(1H-tetrazol-5-yl)-6-(trifluoromethyl)benzenesulfonamide] | 2.82 nM | 4.82 nM | 4.5 nM | 1.563 µM | 6.25 µM | 0.3906 µM | – | – | – | – | – | – | – | – | –
Cn1cncc1C[C@@H](NCc1ccc(-c2cccc(S(N)(=O)=O)c2-c2nnn[nH]2)cc1)C(=O)O [Example 363, 3-methyl-N-{[3′-sulfamoyl-2′-(1H-tetrazol-5-yl)biphenyl-4-yl]methyl}-D-histidine] | – | – | – | – | – | – | – | – | – | 21.4 nM | 233 nM | 3.125 µM | 100 µM | 6.25 µM | IC50 [3, 20]: 495 nM
NS(=O)(=O)c1c(-c2ccc(C3CCNCC3)cc2)ccc(-c2ccc(C3CCNCC3)cc2)c1-c1nn[nH]n1 [Example 430, 3,6-bis[4-(4-piperidyl)phenyl]-2-(2H-tetrazol-5-yl)benzenesulfonamide] | – | – | – | – | – | – | – | – | – | 52.3 nM | 6.38 nM | 1.563 µM | 3.125 µM | 0.3906 µM | IC50 ([3]; VIM-1 IC50, VIM-1 enzyme, CCF2-FA fluorescence assay): 50.8 nM
NS(=O)(=O)c1c(C(F)(F)F)ccc(-c2cnn3ccccc23)c1-c1nnn[nH]1 [Example 710, 3-pyrazolo[1,5-a]pyridin-3-yl-2-(1H-tetrazol-5-yl)-6-(trifluoromethyl)benzenesulfon-amide] | 0.89 nM | 2.08 nM | – | 6.25 µM | 12.5 µM | 6.25 µM | – | – | – | – | – | – | – | – | IC50 ([3]; VIM-1 IC50, VIM-1 enzyme, CCF2-FA substrate): 0.168 nM
Cc1n[nH]c2c1CN(c1ccc(C(F)(F)F)c(S(N)(=O)=O)c1-c1nnn[nH]1)CC2 [Example 655] | 0.985 nM | 7.8 nM | 0.225 nM | 2.344 µM | 9.375 µM | 0.5859 µM | – | – | – | – | – | – | – | – | –
CC(O)C1CCN(Cc2ccc(-c3cccc(S(N)(=O)=O)c3-c3nnn[nH]3)cc2)C1 (stereo not drawn) [Example 351, 4′-{[3-(1-hydroxyethyl)pyrrolidin-1-yl]methyl}-2-(1H-tetrazol-5-yl)biphenyl-3-sulfonamide] | – | – | – | – | – | – | – | – | – | 18.1 nM | 332 nM | 1.563 µM | 150 µM | 3.125 µM | IC50 [3, 20]: 414 nM
NS(=O)(=O)c1c(C(F)(F)F)ccc(-c2ccc(C3CN(CC4CNC4)C3)cc2)c1-c1nnn[nH]1 [Example 800, 4′-[1-(azetidin-3-ylmethyl)azetidin-3-yl]-2-(1H-tetrazol-5-yl)-4-(trifluoromethyl)biphenyl-3-sulfonamide] | – | – | – | – | – | – | 2.68 nM | 5.14 nM | 14.3 nM | – | – | – | – | – | Escherichia coli MITC95 [4, 15]: 0.7813 µM; Klebsiella pneumoniae MITC95 [5, 16]: 12.5 µM; Serratia marcescens MITC95 [6, 17]: 6.25 µM
NS(=O)(=O)c1c(CC(F)(F)F)ccc(-c2ccc(C3CCNCC3)cc2)c1-c1nn[nH]n1 [Example 458, 4′-(piperidin-4-yl)-2-(2H-tetrazol-5-yl)-4-(2,2,2-trifluoroethyl)-[1,1′-biphenyl]-3-sulfonamide] | – | – | – | – | – | – | – | – | – | 22.1 nM | 2.39 nM | 3.125 µM | 3.125 µM | 0.125 µM | IC50 [3, 20]: 2.12 nM
C[N+]1(C)CC(c2ccc(-c3ccc(C(F)(F)F)c(S(N)(=O)=O)c3-c3nn[nH]n3)cc2)C1 [Example 435, 1,1-dimethyl-3-(3′-sulfamoyl-2′-(2H-tetrazol-5-yl)-4′-(trifluoromethyl)-[1,1′-biphenyl]-4-yl)azetidin-1-ium] | – | – | – | – | – | – | – | – | – | 12 nM | 11.1 nM | 1.281 µM | 3.125 µM | 0.25 µM | IC50 [3, 20]: 2.37 nM
CN(C)CCC1CCN(c2ccnc(S(N)(=O)=O)c2-c2nnn[nH]2)CC1 [Example 219, 4-{4-[2-(dimethylamino)ethyl]piperidin-1-yl}-3-(1H-tetrazol-5-yl)pyridine-2-sulfonamide] | – | – | – | – | – | – | 1060 nM | 10400 nM | 458 nM | – | – | – | – | – | Escherichia coli expressing NDM-1 (CLB 30016) MITC95 [4]: 4.688 µM; Klebsiella pneumoniae expressing VIM-1 (IHMA 599644) MITC95 [5]: 12.5 µM; Serratia marcescens expressing IMP-1 (CL5741) MITC95 [6]: 37.5 µM
Nc1nc2c(F)cc(-c3ccc(C(F)(F)F)c(S(N)(=O)=O)c3-c3nnn[nH]3)cc2s1 [Example 743, 3-(2-amino-4-fluoro-1,3-benzothiazol-6-yl)-2-(1H-tetrazol-5-yl)-6-(trifluoromethyl)benzenesulfon-amide] | – | – | – | – | – | – | 0.409 nM | 0.901 nM | 0.147 nM | – | – | – | – | – | Escherichia coli MITC95 [4, 15]: 3.125 µM; Klebsiella pneumoniae MITC95 [5, 16]: 6.25 µM; Serratia marcescens MITC95 [6, 17]: 6.25 µM
NS(=O)(=O)c1c(CCO)ccc(-c2cccc3ncccc23)c1-c1nn[nH]n1 [Example 530, 6-(2-Hydroxyethyl)-3-(quinolin-5-yl)-2-(2H-tetrazol-5-yl)benzenesulfonamide] | 1.15 nM | 25.9 nM | 0.3 nM | 3.125 µM | 4.688 µM | 0.5859 µM | – | – | – | – | – | – | – | – | –
